Data: PubChem BioAssay (NCI)
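Five compound concentrations were applied to cells in 96-well plates for 48 hours; endpoints were derived by simple linear interpolation of the resulting dose-response curve. TGI is the concentration that stops growth completely.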

Legend:
Test in all cases: NCI anticancer screen, dose series, 48 h
786-0 renal = test system: 786-0 renal
ACHN renal = test system: ACHN renal
CAKI-1 renal = test system: CAKI-1 renal
CCRF-CEM leukemia = test system: CCRF-CEM leukemia
COLO 205 colon = test system: COLO 205 colon
HOP-92 NSCLC = test system: HOP-92 NSCLC
HS 578T breast = test system: HS 578T breast
M14 melanoma = test system: M14 melanoma
NCI-H522 lung = test system: NCI-H522 lung
OVCAR-3 ovarian = test system: OVCAR-3 ovarian
OVCAR-5 ovarian = test system: OVCAR-5 ovarian
SF-268 CNS = test system: SF-268 CNS
SF-539 CNS = test system: SF-539 CNS
SK-MEL-2 melanoma = test system: SK-MEL-2 melanoma
SNB-19 CNS = test system: SNB-19 CNS
T-47D breast = test system: T-47D breast
UACC-62 melanoma = test system: UACC-62 melanoma
MCF7 breast = test system: MCF7 breast
BT-549 breast = test system: BT-549 breast

SMILES	TGI (786-0 renal) [µM]	TGI (ACHN renal) [µM]	TGI (CAKI-1 renal) [µM]	TGI (CCRF-CEM leukemia) [µM]	TGI (COLO 205 colon) [µM]	TGI (HOP-92 NSCLC) [µM]	TGI (HS 578T breast) [µM]	TGI (M14 melanoma) [µM]	TGI (NCI-H522 lung) [µM]	TGI (OVCAR-3 ovarian) [µM]	TGI (OVCAR-5 ovarian) [µM]	TGI (SF-268 CNS) [µM]	TGI (SF-539 CNS) [µM]	TGI (SK-MEL-2 melanoma) [µM]	TGI (SNB-19 CNS) [µM]	TGI (T-47D breast) [µM]	TGI (UACC-62 melanoma) [µM]	TGI (MCF7 breast) [µM]	TGI (BT-549 breast) [µM]
COC(CC1(/C=C/O[Si](C(C)C)(C(C)C)C(C)C)C(=O)N(COCC[Si](C)(C)C)c2ccccc21)OC (centres undefined)	> 100	> 100	> 100	> 100	> 100	60	> 100	> 100	23.6	38.3	> 100	38.4	58.7	26.8	> 100	> 100	69.4	–	–
CCC12CCCNC1c1c(n(C)c3ccccc13)C(C(=O)OC)C2 (centres undefined)	> 275	257	77.3	> 275	82.5	113	–	–	37.6	91.1	208	> 275	> 275	259	> 275	–	> 275	–	–
O=C(CC(C(=O)c1cccs1)c1cccs1)c1ccccc1Cl (centres undefined)	> 100	> 100	> 100	> 100	> 100	–	> 100	> 100	–	–	> 100	> 100	> 100	> 100	> 100	> 100	> 100	> 100	–
O=c1c(C2=NCCC2)c(-c2ccc[nH]2)[nH]n1-c1ccccc1	> 100	> 100	> 100	> 100	> 100	> 100	–	> 100	> 100	> 100	> 100	> 100	> 100	> 100	> 100	> 100	> 100	–	> 100
COc1cc(C(=O)C2C(=O)c3ccccc3C2C2(O)c3ccccc3CC2C(O)c2cc(OC)c(OC)c(OC)c2)cc(OC)c1OC (centres undefined)	> 100	> 100	> 100	–	> 100	> 100	> 100	> 100	–	> 100	> 100	> 100	> 100	> 100	> 100	> 100	> 100	> 100	> 100
O=C(Nc1nc(C23CC4CC(CC(C4)C2)C3)cs1)c1cc2cc(Cl)ccc2oc1=O	> 100	> 100	> 100	> 100	> 100	> 100	> 100	–	> 100	> 100	> 100	–	> 100	–	> 100	–	–	> 100	–
N#CCOc1ccc(/C=C/C(=O)c2ccc(Cl)cc2)cc1	48.1	> 100	–	> 100	–	81.4	50.9	> 100	–	> 100	> 100	> 100	36.4	–	61.7	61.2	41.6	54.1	11.7
CCN1C(=O)/C(=C2\SC(c3ccccc3)(c3ccccc3)c3ccccc32)SC1=S	> 100	> 100	–	> 100	> 100	82.4	> 100	> 100	> 100	> 100	> 100	> 100	> 100	–	> 100	–	> 100	> 100	> 100
CCOC(=O)C1C(c2ccc(O)c(OC)c2)c2c([nH][nH]c2=O)CC1(C)O (centres undefined)	> 100	> 100	> 100	> 100	> 100	> 100	> 100	> 100	> 100	> 100	> 100	> 100	> 100	> 100	> 100	> 100	> 100	> 100	–
COc1cc(CNC2=NCCC2)cc(OC)c1OC	> 100	> 100	> 100	> 100	> 100	> 100	–	> 100	> 100	> 100	> 100	> 100	> 100	–	> 100	–	> 100	> 100	> 100
CC(=O)Nc1ccc(-c2nc3ccccc3s2)cc1C	> 100	> 100	59	> 100	> 100	> 100	> 100	> 100	–	–	–	> 100	> 100	> 100	> 100	> 100	> 100	> 100	> 100
COC1(OC)N=C(N)C2(C#N)C3(C(=O)N(C(C)C)N=C3C)C12C#N (centres undefined)	> 100	> 100	> 100	> 100	> 100	> 100	–	> 100	> 100	> 100	> 100	> 100	> 100	> 100	> 100	> 100	> 100	> 100	> 100
CC1CCCCN1CC(=O)c1ccc2c(c1)Sc1ccccc1O2 (centres undefined)	31.9	28.8	37.5	44.4	> 100	30.5	25.7	38.3	–	27.8	34.5	34.2	34	32.4	36	48	30.1	33.6	–
COC(=O)C1(C(=O)OC)N=C(C)OC1c1ccccn1 (centres undefined)	> 100	> 100	> 100	> 100	> 100	> 100	–	> 100	–	> 100	> 100	–	–	> 100	> 100	> 100	> 100	> 100	> 100
Cc1ccc(N=C2S/C(=C3/CCC=C3N3CCOCC3)N(c3ccc(Cl)cc3)C2=Nc2ccc(C)cc2)cc1	> 100	> 100	–	–	> 100	> 100	> 100	> 100	–	–	> 100	–	–	> 100	> 100	> 100	> 100	> 100	> 100
O=[N+]1ON=C(c2ccccc2)C1=C1C(c2c(-c3ccccc3)no[n+]2[O-])=NON1[O-]	31.2	27.4	56.7	> 100	25.4	70.1	> 100	> 100	> 100	30.6	> 100	> 100	73.4	–	> 100	–	51.2	7.51	–
CC(C)(C)CNC(=O)NCn1cc(-c2ccccc2)nn1	> 100	> 100	> 100	> 100	> 100	> 100	–	> 100	> 100	–	> 100	> 100	> 100	> 100	> 100	–	–	> 100	> 100
CCOP(=O)(Nc1ccccc1P(=O)(OCC)OCC)OCC	> 100	> 100	> 100	–	> 100	> 100	> 100	> 100	> 100	> 100	> 100	> 100	–	> 100	> 100	–	> 100	> 100	> 100
O=c1oc2ccccc2c(O)c1/C=N/C(=S)NCc1ccccc1	> 100	> 100	63.7	–	> 100	> 100	–	> 100	–	> 100	> 100	–	> 100	> 100	> 100	> 100	–	> 100	41.5
C/C(=N\NS(=O)(=O)c1ccc(C)cc1)c1cc2ccccc2n1C	> 100	> 100	–	> 100	> 100	–	–	> 100	> 100	–	–	> 100	> 100	> 100	> 100	–	> 100	–	–
CCOC(=O)CSc1nnc(CSc2nc(-c3ccccc3)c(-c3ccccc3)[nH]2)n1-c1ccccc1	> 62.9	35.5	–	> 100	> 100	> 100	–	> 62.4	> 100	> 100	> 100	> 81.3	41.6	> 31.6	> 100	89.7	71.6	> 100	> 100
CC1(C)OCC(C2OC(OC(=O)c3ccc([N+](=O)[O-])cc3)C3OC(C)(C)OC23)O1 (centres undefined)	> 100	> 100	> 100	> 100	> 100	–	–	> 100	> 100	> 100	> 100	> 100	> 100	> 100	> 100	–	> 100	> 100	> 100
Cc1c(/C=N/NC(=S)Nc2ccccc2)c(=O)n(-c2ccccc2)n1C	> 100	> 100	> 100	> 100	> 100	> 100	> 100	> 100	–	–	–	> 100	> 100	> 100	> 100	> 100	> 100	> 100	> 100
CSc1cc(Br)ccc1-n1c(C(=O)c2ccccc2)c(SC)n(-c2ccccc2)c1=O	> 100	> 100	> 100	–	> 100	> 100	> 100	> 100	> 100	> 100	> 100	> 100	> 100	–	> 100	–	> 100	> 100	> 100
O=C(OC[C@H]1C[C@H]2C(=O)CCC[C@H]2O1)c1ccccc1	> 100	> 100	> 100	> 100	> 100	> 100	> 100	> 100	> 100	> 100	> 100	> 100	> 100	> 100	> 100	> 100	> 100	> 100	–
NC(=O)C(=CNC(=S)Nc1ccc(Cl)c(Cl)c1)C(N)=O	> 100	> 100	> 100	> 100	> 100	> 100	> 88.9	> 100	72.3	> 100	> 100	> 100	> 100	> 100	> 100	> 72.9	> 100	> 100	–
Cc1[nH]n(C(=N)N)c(=O)c1CCO	3.08	> 100	> 100	> 100	> 100	> 100	> 100	> 100	> 100	> 100	> 100	> 100	> 100	> 100	> 100	–	> 100	> 100	> 100
Cc1nc2c(cc1C(=O)N/N=C/c1ccc([N+](=O)[O-])cc1)c(=O)n(C)c(=O)n2C	> 100	> 100	> 100	> 100	> 100	–	86.6	> 100	–	> 100	> 100	> 100	–	> 100	56.7	> 100	> 100	> 100	> 100
